Laboratory results as given in ChEMBL document CHEMBL1201862, “PubChem BioAssay data set” (2004).
The source made the active and inactive calls. Square brackets hold non-standard residues; d marks the D form. Peptide text beside a SMILES is read from it. * marks the point of attachment. Hyp = O=C(O)[CH]1C[CH](O)CN1; Cbz = O=C(OCc1ccccc1)*; OBn = c1ccc(CO*)cc1

Tests used:
[1] = molecular target: T1, Sentrin-specific protease 8 (Homo sapiens, UniProt Q96LD8); format: functional;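 further: luminescence read-out of SENP8 inhibition, dose-response confirmation following an ultra-high-throughput screen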
T1 sequence (Q96LD8 whole entry): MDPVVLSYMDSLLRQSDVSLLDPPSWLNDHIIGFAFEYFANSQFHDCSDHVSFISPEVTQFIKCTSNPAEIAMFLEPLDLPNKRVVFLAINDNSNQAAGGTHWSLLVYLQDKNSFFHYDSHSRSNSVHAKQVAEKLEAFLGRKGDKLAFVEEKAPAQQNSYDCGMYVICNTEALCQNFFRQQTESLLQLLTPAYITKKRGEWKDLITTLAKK

[2] = molecular target: T2, Sentrin-specific protease 6 (Homo sapiens, UniProt Q9GZR1); format: functional;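 further: Luminescence-based dose-response confirmatory assay of SENP6 inhibition, following up an ultra-high-throughput screen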
T2 sequence (Q9GZR1 whole entry): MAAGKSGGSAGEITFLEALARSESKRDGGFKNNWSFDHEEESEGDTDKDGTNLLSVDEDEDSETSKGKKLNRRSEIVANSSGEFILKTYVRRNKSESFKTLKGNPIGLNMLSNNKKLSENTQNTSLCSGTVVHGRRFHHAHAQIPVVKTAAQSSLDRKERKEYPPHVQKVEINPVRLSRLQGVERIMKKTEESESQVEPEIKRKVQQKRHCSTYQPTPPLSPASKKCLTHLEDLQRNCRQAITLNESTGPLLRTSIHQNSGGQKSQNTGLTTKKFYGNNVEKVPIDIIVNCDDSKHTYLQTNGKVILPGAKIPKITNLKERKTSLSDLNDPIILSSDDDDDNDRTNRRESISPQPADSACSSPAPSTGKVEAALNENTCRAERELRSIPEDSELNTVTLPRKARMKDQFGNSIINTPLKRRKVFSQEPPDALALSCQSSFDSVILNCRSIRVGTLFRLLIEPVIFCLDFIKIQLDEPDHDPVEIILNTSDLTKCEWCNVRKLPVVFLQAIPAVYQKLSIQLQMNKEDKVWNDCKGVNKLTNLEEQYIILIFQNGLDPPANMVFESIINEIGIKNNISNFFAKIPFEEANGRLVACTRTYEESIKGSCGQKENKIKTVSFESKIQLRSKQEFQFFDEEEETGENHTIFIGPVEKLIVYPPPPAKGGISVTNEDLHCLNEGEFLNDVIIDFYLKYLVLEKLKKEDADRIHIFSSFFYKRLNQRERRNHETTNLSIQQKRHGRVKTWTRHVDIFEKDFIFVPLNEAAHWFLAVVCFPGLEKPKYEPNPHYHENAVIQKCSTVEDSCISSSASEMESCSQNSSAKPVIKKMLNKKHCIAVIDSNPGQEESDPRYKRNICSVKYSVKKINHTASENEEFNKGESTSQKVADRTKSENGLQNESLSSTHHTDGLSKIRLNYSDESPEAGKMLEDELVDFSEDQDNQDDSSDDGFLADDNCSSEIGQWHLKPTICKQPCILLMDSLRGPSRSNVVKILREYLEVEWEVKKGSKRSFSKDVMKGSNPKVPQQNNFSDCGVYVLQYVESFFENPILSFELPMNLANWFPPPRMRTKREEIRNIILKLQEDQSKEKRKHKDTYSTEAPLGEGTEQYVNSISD

[3] = molecular target: T3, Sentrin-specific protease 7 (Homo sapiens, UniProt Q9BQF6); format: functional;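 further: Luminescence-based dose-response confirmation of ultra-high-throughput screening hits, measuring inhibition of SENP7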
T3 sequence (Q9BQF6 whole entry): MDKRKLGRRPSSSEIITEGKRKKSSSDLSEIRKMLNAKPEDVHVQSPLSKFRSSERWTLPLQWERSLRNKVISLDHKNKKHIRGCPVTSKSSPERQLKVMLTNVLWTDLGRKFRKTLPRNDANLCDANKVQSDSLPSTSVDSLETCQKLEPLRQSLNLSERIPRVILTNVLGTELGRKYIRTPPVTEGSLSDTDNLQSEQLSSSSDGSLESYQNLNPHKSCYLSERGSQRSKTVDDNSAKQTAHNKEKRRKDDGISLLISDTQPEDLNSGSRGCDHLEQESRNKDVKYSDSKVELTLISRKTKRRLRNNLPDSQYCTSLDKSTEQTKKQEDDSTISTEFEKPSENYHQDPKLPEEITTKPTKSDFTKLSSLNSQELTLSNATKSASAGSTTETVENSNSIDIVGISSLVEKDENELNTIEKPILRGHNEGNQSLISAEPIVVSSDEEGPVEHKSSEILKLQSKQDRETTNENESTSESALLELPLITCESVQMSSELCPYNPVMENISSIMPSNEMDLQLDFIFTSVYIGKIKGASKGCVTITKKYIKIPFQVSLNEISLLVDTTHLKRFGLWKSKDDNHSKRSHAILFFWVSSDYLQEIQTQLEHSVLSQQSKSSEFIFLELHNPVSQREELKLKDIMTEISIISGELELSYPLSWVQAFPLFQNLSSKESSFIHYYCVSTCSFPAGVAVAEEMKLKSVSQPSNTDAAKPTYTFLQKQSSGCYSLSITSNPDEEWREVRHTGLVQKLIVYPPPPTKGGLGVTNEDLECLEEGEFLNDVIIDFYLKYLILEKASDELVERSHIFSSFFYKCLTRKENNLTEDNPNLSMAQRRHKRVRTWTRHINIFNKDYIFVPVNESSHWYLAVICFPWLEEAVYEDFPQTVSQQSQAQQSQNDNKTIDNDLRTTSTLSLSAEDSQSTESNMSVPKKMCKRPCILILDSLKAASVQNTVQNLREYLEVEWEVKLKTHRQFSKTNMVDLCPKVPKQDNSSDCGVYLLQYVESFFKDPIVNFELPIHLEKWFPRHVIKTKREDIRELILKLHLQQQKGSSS

Caspase-3 = molecular target: T4, Caspase-3 (Homo sapiens, UniProt P42574); format: functional;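 further: Dose-response selectivity test against caspase-3 for candidate inhibitors of sentrin-specific proteases (SENPs)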
T4 sequence (P42574 whole entry): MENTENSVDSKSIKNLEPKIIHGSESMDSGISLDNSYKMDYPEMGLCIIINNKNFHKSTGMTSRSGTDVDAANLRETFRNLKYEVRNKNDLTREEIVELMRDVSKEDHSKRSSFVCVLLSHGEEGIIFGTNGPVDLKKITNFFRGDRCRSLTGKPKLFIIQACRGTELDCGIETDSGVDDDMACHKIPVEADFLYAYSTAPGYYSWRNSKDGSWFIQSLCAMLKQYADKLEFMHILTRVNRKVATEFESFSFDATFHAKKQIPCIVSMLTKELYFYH

HEK293 = assay: EBV LMP1 TES2 canonical NF-kB signalling blockers – cell-based, HEK293, luciferase, cherry-pick, dose response (AID 588343); format: functional; settings: Homo sapiens
[4] = test system: Streptococcus sp. 'group A'; assay: Streptococcus pyogenes SK(-)GAS viability under kanamycin – luminescence, BacTiterGlo, confirmation, counter-screen for streptokinase expression inhibitor project, dose response (AID 1900); format: functional, organism-based
[5] = molecular target: Luciferin 4-monooxygenase (Photinus pyralis, UniProt P08659); assay: inhibition of purified Photinus pyralis luciferase – biochemical, luminescence, dose response (AID 1891)
Sequence of Luciferin 4-monooxygenase (P08659 whole entry): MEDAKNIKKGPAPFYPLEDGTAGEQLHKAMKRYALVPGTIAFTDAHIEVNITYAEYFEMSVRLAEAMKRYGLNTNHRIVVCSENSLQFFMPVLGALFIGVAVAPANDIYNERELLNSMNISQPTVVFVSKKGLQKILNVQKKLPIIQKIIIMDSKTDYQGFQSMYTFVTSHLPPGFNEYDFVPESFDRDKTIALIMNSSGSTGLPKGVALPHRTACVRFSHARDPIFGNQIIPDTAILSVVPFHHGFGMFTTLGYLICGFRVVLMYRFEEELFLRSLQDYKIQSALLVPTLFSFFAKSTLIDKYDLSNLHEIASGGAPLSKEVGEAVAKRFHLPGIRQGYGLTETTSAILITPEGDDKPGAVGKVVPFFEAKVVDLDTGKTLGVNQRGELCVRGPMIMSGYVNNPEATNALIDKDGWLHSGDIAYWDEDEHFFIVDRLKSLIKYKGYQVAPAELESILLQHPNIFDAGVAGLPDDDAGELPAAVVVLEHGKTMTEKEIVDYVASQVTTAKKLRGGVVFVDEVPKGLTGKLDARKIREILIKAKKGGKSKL

BJ [6] = assay: BJ-TERT fibroblast viability loss – cell-based, RAS-independent, luminescence, dose response (AID 1933); format: functional; settings: Homo sapiens
Fatty acid synthase [7] = molecular target: T5, Fatty acid synthase (Homo sapiens, UniProt P49327); assay: inhibition of human FAS-TE enzyme activity – biochemical, endpoint fluorescence intensity, uHTS hits, dose response (AID 624327); format: functional;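 further: fluorescence from hydrolysis of an O-methyl fluorescein acyl ester substrate by the enzyme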
T5 sequence (P49327 whole entry): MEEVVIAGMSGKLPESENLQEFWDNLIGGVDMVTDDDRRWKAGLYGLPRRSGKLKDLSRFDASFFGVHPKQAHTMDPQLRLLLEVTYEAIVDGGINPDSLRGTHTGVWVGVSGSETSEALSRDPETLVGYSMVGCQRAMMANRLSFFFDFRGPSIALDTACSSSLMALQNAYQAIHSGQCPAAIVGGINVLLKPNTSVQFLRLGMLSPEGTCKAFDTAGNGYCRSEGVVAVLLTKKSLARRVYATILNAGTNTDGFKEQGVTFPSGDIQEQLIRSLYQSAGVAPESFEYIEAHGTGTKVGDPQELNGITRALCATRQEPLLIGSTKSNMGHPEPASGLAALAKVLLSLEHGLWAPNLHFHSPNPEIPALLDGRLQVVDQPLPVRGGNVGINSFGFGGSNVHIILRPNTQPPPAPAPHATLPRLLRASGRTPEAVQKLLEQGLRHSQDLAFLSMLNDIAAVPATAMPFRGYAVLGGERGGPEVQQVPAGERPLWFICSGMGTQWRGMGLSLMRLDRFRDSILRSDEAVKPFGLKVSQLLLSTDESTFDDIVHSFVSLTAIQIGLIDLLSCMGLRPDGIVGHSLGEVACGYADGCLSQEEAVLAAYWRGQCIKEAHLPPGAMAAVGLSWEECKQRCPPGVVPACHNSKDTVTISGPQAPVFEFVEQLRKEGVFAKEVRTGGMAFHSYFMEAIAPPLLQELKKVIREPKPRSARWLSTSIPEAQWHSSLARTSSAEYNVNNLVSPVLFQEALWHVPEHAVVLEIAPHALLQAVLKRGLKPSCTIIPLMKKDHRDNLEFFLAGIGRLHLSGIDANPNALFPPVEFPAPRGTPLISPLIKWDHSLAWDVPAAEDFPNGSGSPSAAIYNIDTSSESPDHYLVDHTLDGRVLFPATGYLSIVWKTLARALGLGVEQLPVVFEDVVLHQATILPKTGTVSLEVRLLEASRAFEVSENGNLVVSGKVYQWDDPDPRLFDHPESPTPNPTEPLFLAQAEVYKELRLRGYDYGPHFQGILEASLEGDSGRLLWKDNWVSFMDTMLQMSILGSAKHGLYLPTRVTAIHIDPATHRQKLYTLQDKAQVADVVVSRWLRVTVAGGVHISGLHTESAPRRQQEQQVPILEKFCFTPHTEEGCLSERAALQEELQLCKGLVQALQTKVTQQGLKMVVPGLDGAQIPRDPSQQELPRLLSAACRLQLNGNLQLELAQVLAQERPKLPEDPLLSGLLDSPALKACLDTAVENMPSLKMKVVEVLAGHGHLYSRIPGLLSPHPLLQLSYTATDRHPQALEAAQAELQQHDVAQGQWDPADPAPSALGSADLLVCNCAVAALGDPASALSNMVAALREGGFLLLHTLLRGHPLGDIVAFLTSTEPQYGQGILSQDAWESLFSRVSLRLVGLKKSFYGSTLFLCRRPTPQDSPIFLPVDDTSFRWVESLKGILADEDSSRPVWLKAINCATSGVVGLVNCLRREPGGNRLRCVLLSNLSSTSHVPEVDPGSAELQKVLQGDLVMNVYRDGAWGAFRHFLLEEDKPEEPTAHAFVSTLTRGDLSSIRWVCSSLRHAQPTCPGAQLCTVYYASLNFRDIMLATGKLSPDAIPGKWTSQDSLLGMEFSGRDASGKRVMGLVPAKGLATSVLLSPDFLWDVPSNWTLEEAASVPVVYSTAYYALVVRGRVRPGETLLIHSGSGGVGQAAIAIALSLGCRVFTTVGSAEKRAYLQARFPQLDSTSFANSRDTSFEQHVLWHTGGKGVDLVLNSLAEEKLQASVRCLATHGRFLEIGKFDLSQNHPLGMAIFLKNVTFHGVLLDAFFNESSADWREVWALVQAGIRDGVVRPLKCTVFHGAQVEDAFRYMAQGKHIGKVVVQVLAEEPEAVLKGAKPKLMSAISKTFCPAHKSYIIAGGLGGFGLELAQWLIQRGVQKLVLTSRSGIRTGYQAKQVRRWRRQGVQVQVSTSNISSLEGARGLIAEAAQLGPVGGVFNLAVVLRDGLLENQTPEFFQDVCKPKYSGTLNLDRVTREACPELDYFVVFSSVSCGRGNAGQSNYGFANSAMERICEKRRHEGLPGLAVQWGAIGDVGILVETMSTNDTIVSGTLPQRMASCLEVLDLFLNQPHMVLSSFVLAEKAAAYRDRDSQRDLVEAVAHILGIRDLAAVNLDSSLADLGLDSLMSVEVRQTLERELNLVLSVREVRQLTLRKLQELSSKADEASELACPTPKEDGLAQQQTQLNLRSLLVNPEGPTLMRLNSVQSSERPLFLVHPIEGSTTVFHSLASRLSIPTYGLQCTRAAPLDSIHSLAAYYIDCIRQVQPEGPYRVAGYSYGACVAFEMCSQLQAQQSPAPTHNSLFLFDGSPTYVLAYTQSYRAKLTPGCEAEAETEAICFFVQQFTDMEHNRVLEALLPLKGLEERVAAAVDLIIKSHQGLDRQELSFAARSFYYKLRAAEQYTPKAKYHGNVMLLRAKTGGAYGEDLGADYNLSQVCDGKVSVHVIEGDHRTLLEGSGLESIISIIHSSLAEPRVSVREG

[8] = general cell-killing toxicity readout – plate reader, dry powder samples, cytotoxicity control for PAX8 inhibitor project, dose response (AID 743021); format: functional, cell-based
Fatty acid synthase [9] = molecular target: T5, Fatty acid synthase; assay: inhibition of human FAS-TE enzyme activity – biochemical, kinetic fluorescence intensity, dose response (AID 624326); format: functional;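 further: rate of fluorescence rise from hydrolysis of a fluorogenic O-methyl fluorescein ester substrate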
BJ [10] = assay: growth inhibition of engineered Ras-driven BJ cells – cell-based, alamar blue fluorescence, cherrypicked samples, dose response (AID 2631); format: functional; settings: Homo sapiens;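 further: confirmatory dose-response assay in RAS-dependent BJ fibroblasts engineered with TERT, LT and ST, with cytotoxicity read by fluorescence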
[11] = reduction of Shn3 3'UTR-driven luciferase in osteoblasts – cell-based, Clone20 osteoblasts, firefly luciferase, cherry-picked, dose response (AID 624132); format: functional;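 further: firefly luciferase luminescence from reporter carrying the Shn3 3'UTR in osteoblasts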
BJ [12] = assay: cells; format: functional, cell-based; settings: Homo sapiens
Streptokinase A = molecular target: T6, Streptokinase A (Streptococcus pyogenes serotype M1, UniProt P10520); assay: viability-normalized secreted streptokinase activity reduction – plasminogen activation absorbance, OD405, dose response (AID 1914); format: functional, Streptococcus pyogenes M1 GAS;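 further: secreted streptokinase activity via plasminogen activation per viability signal from cell pellet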
T6 sequence (P10520 whole entry): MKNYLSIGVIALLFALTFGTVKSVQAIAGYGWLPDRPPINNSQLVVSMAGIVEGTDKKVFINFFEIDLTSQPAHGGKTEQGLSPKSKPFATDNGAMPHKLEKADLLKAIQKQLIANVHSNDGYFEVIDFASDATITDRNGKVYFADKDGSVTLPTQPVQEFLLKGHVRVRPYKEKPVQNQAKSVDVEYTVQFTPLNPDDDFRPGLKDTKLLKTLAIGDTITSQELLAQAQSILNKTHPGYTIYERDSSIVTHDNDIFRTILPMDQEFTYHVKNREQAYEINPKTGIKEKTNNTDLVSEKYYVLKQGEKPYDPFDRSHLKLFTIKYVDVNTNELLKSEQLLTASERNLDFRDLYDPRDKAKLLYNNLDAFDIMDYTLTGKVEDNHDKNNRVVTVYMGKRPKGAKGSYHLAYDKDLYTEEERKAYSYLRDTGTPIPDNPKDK

Large T antigen = Large T antigen (Simian virus 40, UniProt P03070); format: functional, Betapolyomavirus macacae;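 further: Confirmatory-stage PubChem screen for compounds that inhibit SV40 T antigen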
Sequence of Large T antigen (P03070 whole entry): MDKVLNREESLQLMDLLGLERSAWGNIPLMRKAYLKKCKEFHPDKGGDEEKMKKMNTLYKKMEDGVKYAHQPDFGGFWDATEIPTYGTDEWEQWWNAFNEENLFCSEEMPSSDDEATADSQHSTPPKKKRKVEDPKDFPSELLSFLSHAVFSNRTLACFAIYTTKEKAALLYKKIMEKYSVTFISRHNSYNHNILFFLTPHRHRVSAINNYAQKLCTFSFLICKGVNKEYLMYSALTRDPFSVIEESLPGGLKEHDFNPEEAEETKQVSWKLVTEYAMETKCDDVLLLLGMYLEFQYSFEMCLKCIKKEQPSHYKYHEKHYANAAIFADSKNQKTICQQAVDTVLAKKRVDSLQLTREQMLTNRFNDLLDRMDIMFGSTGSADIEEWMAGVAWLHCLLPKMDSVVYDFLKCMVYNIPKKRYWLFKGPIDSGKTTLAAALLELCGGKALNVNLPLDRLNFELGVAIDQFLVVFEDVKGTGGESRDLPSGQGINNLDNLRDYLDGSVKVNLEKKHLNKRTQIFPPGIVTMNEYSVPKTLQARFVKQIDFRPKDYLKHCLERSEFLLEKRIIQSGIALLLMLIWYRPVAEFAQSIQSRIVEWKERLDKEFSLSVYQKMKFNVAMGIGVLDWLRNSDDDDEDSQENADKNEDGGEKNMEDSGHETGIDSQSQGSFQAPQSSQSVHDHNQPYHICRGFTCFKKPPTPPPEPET

[13] = molecular target: T7, High affinity choline transporter 1 (Homo sapiens, UniProt Q9GZV3); assay: human choline transporter blockers, potency – cell-based, 5-point CRC, membrane potential dye, dose response (AID 504840); format: functional
T7 sequence (Q9GZV3 whole entry): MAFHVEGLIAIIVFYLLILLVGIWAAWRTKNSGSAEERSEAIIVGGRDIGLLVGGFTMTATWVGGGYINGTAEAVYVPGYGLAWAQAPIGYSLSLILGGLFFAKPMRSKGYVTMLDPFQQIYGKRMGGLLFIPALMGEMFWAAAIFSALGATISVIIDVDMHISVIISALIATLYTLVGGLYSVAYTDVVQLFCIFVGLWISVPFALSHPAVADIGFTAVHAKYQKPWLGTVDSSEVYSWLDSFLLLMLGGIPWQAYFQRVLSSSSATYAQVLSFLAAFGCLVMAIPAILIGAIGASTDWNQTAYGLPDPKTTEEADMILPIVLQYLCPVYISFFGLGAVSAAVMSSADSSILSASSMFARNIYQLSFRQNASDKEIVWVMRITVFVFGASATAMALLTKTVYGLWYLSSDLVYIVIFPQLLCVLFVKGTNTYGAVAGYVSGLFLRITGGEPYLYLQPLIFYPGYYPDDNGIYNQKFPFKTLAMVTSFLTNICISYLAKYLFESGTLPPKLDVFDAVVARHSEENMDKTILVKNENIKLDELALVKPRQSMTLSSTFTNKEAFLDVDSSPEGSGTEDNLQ

BJ [14] = assay: BJ-TERT-LT-ST fibroblast viability loss – cell-based, RAS-independent, luminescence, dose response (AID 1935); format: functional; settings: Homo sapiens;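 further: BJ fibroblasts immortalized with TERT plus LT and ST oncogenes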
Vero = assay: viability of Vero cells under compound – cytotoxicity control for flavivirus capping enzyme inhibitors (AID 588742); format: functional; settings: Chlorocebus sabaeus
[15] = non-specific 3'UTR reporter inhibition in Clone20-Shn3RL – cell-based, Renilla luciferase, cherry-picked, counter-screen for Shn3 inhibitor project, dose response (AID 624133); format: functional
Streptococcus = assay: GAS UMAA2166 growth inhibition – luminescence, BacTiterGlo, counter-screen for streptokinase expression inhibitor project, dose response (AID 1915); format: functional, organism-based;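 further: potency for reduction of bacterial viability or growth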
Genome polyprotein = Genome polyprotein (dengue virus type 2, UniProt P29990); assay: flavivirus cap methylation enzyme inhibition – biochemical, confirmation dose response, primary screen (AID 588689); format: functional
Sequence of Genome polyprotein (P29990 2492-3391 limits assumed): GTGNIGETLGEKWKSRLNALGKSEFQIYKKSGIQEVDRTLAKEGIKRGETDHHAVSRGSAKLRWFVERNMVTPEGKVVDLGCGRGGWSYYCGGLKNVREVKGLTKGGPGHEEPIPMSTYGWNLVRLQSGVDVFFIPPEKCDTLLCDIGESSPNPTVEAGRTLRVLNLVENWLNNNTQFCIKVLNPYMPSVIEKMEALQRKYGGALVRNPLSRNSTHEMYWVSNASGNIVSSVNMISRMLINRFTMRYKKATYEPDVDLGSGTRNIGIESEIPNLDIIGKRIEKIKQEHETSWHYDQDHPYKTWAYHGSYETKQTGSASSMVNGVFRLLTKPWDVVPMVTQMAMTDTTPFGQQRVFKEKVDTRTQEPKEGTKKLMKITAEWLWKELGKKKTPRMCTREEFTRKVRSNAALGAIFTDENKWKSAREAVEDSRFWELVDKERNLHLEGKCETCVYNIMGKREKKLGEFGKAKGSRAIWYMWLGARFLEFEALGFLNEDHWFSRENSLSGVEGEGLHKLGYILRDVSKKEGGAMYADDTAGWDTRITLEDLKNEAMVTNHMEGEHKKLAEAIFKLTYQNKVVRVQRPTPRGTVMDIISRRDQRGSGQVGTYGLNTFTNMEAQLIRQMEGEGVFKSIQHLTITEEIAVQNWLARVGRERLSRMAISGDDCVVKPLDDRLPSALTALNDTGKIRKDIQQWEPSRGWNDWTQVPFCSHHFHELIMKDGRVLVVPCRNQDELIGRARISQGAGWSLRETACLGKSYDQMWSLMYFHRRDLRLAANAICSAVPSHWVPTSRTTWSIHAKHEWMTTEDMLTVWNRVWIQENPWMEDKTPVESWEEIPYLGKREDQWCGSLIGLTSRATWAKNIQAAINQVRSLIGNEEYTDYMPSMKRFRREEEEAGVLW

[16] = DRD fibroblast viability loss – cell-based, non-viral oncogenic, luminescence, dose response (AID 1934); format: functional; settings: Homo sapiens
[17] = loss of viability in HepG2 cells – cell-based, CellTiter-Glo, cherry-picked, cytotoxicity control for Shn3 inhibitor project, dose response (AID 624134); format: functional
[18] = Luminescence Cell-Based Dose Confirmation HTS to Identify Inhibitors of Platelet Dense Granule Release. [Related pubchem assays: 1663 (Primary HTS), 1678 (Summary of Project)]; format: functional
Paired box protein Pax-8 = Paired box protein Pax-8 (Homo sapiens, UniProt Q06710); assay: PAX8 transcriptional activity inhibition in RMG-I – RMG-I cells, luciferase, cherry-pick, dose response (AID 687027); format: functional, cell-based;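 further: luciferase reporter driven by Pax8 target thyroperoxidase promoter measured by SteadyGlo luminescence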
Sequence of Paired box protein Pax-8 (Q06710 whole entry): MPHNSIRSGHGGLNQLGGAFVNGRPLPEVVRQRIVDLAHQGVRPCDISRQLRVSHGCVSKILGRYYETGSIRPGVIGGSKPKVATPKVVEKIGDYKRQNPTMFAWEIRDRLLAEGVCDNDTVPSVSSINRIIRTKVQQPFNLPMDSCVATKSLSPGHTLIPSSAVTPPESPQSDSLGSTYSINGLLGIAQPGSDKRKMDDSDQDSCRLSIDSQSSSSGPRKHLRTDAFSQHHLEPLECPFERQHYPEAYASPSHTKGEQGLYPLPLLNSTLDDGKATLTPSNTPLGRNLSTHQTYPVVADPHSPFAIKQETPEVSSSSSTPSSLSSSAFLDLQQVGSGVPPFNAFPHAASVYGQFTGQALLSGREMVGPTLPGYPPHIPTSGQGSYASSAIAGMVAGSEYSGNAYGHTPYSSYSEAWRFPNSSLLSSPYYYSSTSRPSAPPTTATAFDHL

H9c2 = assay: cells; format: functional, cell-based; settings: Rattus norvegicus, H9c2, Myocardium;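 further: confirmatory concentration-response retest of ultra-high-throughput screening hits for modulation of myocardial damage; cell death induced by hydrogen peroxide oxidative stress; compound pretreatment for 60 min then peroxide exposure for 2 h; potency is for protecting the cells against peroxide damage rather than for killing them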

Q: For `CCCCOC(=O)Nc1ccc2c(C)cc(=O)oc2c1`, which IC50 [1] is on record?
A: 12.7 µM (active)

Q: What about the IC50 [2] of the same compound?
A: 8.26 µM (active)

Q: What about the IC50 [3] of the same compound?
A: 4.58 µM (active)

Q: And the IC50 (Caspase-3)?
A: 7.45 µM (active)

Q: Which results are given for `O=[N+]([O-])c1c(Nc2cccc(O)c2)cc(Cl)c2nonc12`?
A: AC50 (HEK293): 3.64 µM (active); EC50 [4]: 7.24 µM (active); EC50 [5]: > 112 µM (not active); EC50 (BJ [6]): 2.6 µM (active); IC50 (Fatty acid synthase [7]): 5.29 µM (active); AC50 [8]: 22.6 µM (active); IC50 (Fatty acid synthase [9]): 3.24 µM (active); EC50 (BJ [10]): 0.585 µM (active); AC50 [11]: 0.683 µM (active); EC50 (BJ [12]): 5.62 µM (inconclusive); EC50 (Streptokinase A): 5.58 µM (active); IC50 (Large T antigen): 47.8 µM (active); IC50 [13]: 10.5 µM (active); EC50 (BJ [14]): 4.25 µM (inconclusive); CC50 (Vero): 33.7 µM (active); AC50 [15]: 5.66 µM (active); EC50 (Streptococcus): 10.5 µM (active); IC50 (Genome polyprotein): 26.2 µM (active); EC50 [16]: 5.13 µM (active); AC50 [17]: 12.5 µM (active); EC50 [18]: 4.14 µM (active); AC50 (Paired box protein Pax-8): 7.24 µM (active)

Q: What does the source list for `Oc1ccc2oc3c(c2c1/C=N/Cc1ccncc1)CCCC3`?
A: IC50 (H9c2): > 79 µM (inactive); CC50 (Vero): > 40 µM (active)

Q: With `CC(NC(=O)CNC(=O)OCc1ccccc1)C(=O)N1CC(O)CC1C(=O)OCc1ccccc1` (stereo not drawn) (Cbz-Gly-Ala-[Hyp]-OBn; configuration not given here) as the compound, how does the AC50 (HEK293) read?
A: 273 µM (active)
